“And” between values parts separate entries of the source, which are not always exact repeats. Equal entries are not always repeated. ± gives the expanded uncertainty stated by the source.
Conditions: 343.16 K, Liquid, Vibrating tube method

Measured: mass density

CCCCCC(=O)OCC(COC(=O)CCCCC)(COC(=O)CCCCC)COC(=O)CCCCC [pentaerythritol tetrahexanoate]
957.5 ± 1.2 kg/m3: 346.4 kPa
957.4 ± 1.2 kg/m3 and 957.3 ± 1.2 kg/m3: 299.9 kPa | 301.6 kPa | 331.5 kPa | 345.2 kPa
957.3 ± 1.2 kg/m3 and 957.4 ± 1.2 kg/m3: 302.1 kPa | 353.7 kPa
957.2 ± 1.2 kg/m3: 294.3 kPa | 294.7 kPa | 294.8 kPa | 295.2 kPa | 296.4 kPa | 300.6 kPa | 300.9 kPa | 301.1 kPa | 302.5 kPa | 303.2 kPa | 304.6 kPa | 305.1 kPa | 312.6 kPa | 314.6 kPa | 329.9 kPa | 337.1 kPa
957.3 ± 1.2 kg/m3: 295.5 kPa | 295.9 kPa | 300.7 kPa | 301.3 kPa | 302.7 kPa | 303 kPa | 304.2 kPa | 307.2 kPa | 310.1 kPa | 310.5 kPa | 312.2 kPa | 315.3 kPa | 317.4 kPa | 318.1 kPa | 325.6 kPa | 328.2 kPa | 328.9 kPa | 329.6 kPa | 330.6 kPa | 330.8 kPa | 332 kPa | 332.4 kPa | 332.5 kPa | 332.9 kPa | 337.8 kPa
957.1 ± 1.2 kg/m3: 293.8 kPa
957.4 ± 1.2 kg/m3: 294 kPa | 300 kPa | 300.2 kPa | 304.7 kPa | 305.4 kPa | 310.3 kPa | 310.6 kPa | 313.1 kPa | 313.6 kPa | 313.9 kPa | 314.3 kPa | 314.5 kPa | 314.8 kPa | 315.5 kPa | 317.1 kPa | 321.6 kPa | 322.1 kPa | 328.7 kPa | 329.2 kPa | 330.1 kPa | 331.3 kPa | 337.6 kPa | 344.9 kPa | 345.9 kPa

Reference: the NIST ThermoML archive (doi:10.1021/je060271a)
